# US20250145570A1, “DHODH INHIBITOR POLYMORPH” (Aslan Pharmaceuticals Pte Ltd, priority 2022, published 2025)
# Key:
# [1] = Particle size distribution (PSD); format: physicochemical
# [2] = Polymorph screening experiments (XRPD of returned solids); format: physicochemical; conditions: for XRPD after thermal cycling: 5-40° C., ~72 hours, THP and THF; for XRPD after 2-week slurry: 40° C.; for XRPD (Grind): fast evaporation at 100° C., post-grinding
# Description: A solvent solubility screen was carried out on the farudodstat DSP polymorph (also referred to as CS-276-22 in the following examples) to determine its solubility in various solvents, and to gain an initial assessment of the polymorphic landscape. To ˜20 mg samples of predominantly amorphous farudodstat, aliquots (2×50 μL and then 100 μL) of the chosen solvents were added until dissolution was observed, or 2 mL had been added. The samples were manually agitated and heated to ˜40° C. in a block attached to a water bath in between each aliquot Clear solutions were uncapped and allowed to evaporate at room temperature. Any solids obtained from slurries and from evaporation were analysed by X-ray powder diffraction (XRPD).
# 16×20 mg of the farudodstat DSP polymorph sample was weighed into 2 mL bead mill vials and was milled for 1.5 hrs for amorphization. Next, 5 μL of appropriate solvents (see Table 6) were added to each sample. The samples were then bead milled using the following procedure: • 1. 2 stainless steel beads were added to each vial. • 2. 4500 rpm • 3. 10×90 s cycles • 4. 10 s hold between each cycle • 5. Repeated 4× to give 1 hr milling time
# 16×20 mg of farudodstat sample was first weighed into 2 mL bead mill vials and was milled to prepare amorphous material. To all the […] bead milled samples, appropriate solvents (see Table 6) were added in 100 μL aliquots until a mobile slurry was obtained without any dissolution observed. Between additions, the samples were stirred at 40° C. Samples were then stirred, and temperature cycled between 5-40° C. (0.1° C./min heating/cooling rate, 1 hour hold at each temperature) for ˜72 hours.
# After 48 hours, samples were checked. If necessary, additional solids added. Non-mobile solid in solution samples were agitated using a spatula until a mobile slurry was obtained. Slurries were isolated by centrifugation ([…] nylon filters) and the solids analysed by XRPD. Post XRPD analysis, the XRPD plate was dried at 40° C. under vacuum for 48 hours and the solids reanalysed by XRPD to give an indication of form stability.
# The saturate isolated from the previous thermal cycling experiment was left to evaporate at room temperature. Any solids returned from evaporation were analysed by XRPD.
# 16×20 mg of farudodstat sample was weighed into 2 mL bead mill vials and then milled to prepare amorphous material. To the bead milled sample, appropriate solvent was added in 100 μL aliquots until a mobile slurry was obtained without any dissolution observed. Between additions, the samples were stirred at 50° C. and 100° C. depending upon the boiling point of the solvent to dissolve the API in the solvent system. Samples were checked and slurries were isolated by centrifugation ([…] Nylon filters) and the saturates were put in an HPLC vials. Next, the vials were uncapped and were left to evaporate at 50° C. using a water bath. Finally, after the complete evaporation of solvent, the remaining solid were analysed by XRPD to check for appearance of any new patterns.
# 20 mg×5 of farudodstat sample was weighed into 2 ml bead mill vials and milled to prepare amorphous material. To the bead milled sample, appropriate solvent was added in 100 μL aliquots until a mobile slurry was obtained without any dissolution observed. Between additions, the samples were stirred at 100° C. to dissolve the API in the solvent system. Samples were checked and slurries were isolated by centrifugation (0.22 μm Nylon filters) and the saturates were put in an HPLC vials. The vials were then uncapped and were left to evaporate at 100° C. using a sand bath. After the complete evaporation of solvent, the remaining solid were analysed by XRPD to check for appearance of any new patterns.
# 20 mg×16 farudodstat sample was weighed into 2 ml bead mill vials and milled to prepare amorphous material. The appropriate solvent was added in 100 μL aliquots until a mobile slurry was obtained without any dissolution observed. […]
compound,measurement,setting,value
COc1cccc(-c2cc(F)c(Nc3ncccc3C(=O)O)c(F)c2)c1 [1302NC0160A-01],Particle Size D10,[1],2.54 μm
same,Particle Size D50,[1],5.97 μm
same,Particle Size D90,[1],11.79 μm
same,Particle Size MV,[1],6.70 μm
"COc1cccc(-c2cc(F)c(Nc3ncccc3C(=O)O)c(F)c2)c1 [farudodstat, 2-(3,5-difluoro-3′-methoxybiphenyl-4-ylamino) nicotinic acid]",XRPD after room temperature evaporation,"[2]; 1,1,1.3.3.3-Hexafluoro-2-Propanol, 2-Methyl THF, DMF, THF and THP",returned to Pattern 1
same,XRPD after room temperature evaporation,"[2]; 1,1-Dimethoxymethane, 1,3-Dioxolane, 1,4-Dioxane",showed preferred orientation of Pattern 1 but returned to Pattern 1 after grinding
same,XRPD after 2-week slurry then fast evaporation at 100° C.,"[2]; 1,1-Dimethoxymethane, 1,3-Dioxolane, 2-Ethoxyethanol, 1,1,1.3.3.3-Hexafluoro-2-Propanol, DMA, DMF and NMP","showed preferred orientation. However, post-grinding returned these to Pattern 1"
same,"XRPD of solids, solvent solubility assessment","[2]; 1,1-Dimethoxymethane, 1,4-Dioxane, 2-Ethoxyethanol, 1,1,1,3,3,3-Hexafluoro-2-Propanol, 2-Methyl THF, Benzyl Alcohol",remained amorphous
same,XRPD after fast evaporation at 50° C.,"[2]; 1,1-dimethoxymethane and 2-propanol",showed amorphous pattern
same,XRPD after fast evaporation at 50° C.,"[2]; 1,3-dioxlane, 1,4-dioxane",showed preferred orientation
same,XRPD after fast evaporation at 50° C.,"[2]; 2-Ethoxyethanol, new peak at 21.1° 2θ",potential new pattern
same,"XRPD of solids, solvent solubility assessment","[2]; 2-propanol, 48% Methanol:52% Water, 93% Ethanol:7% Water, 98.5% Ethanol:1.5% Water, Methanol, tert-Butylmethyl Ether",returned to Pattern 1
same,XRPD after thermal cycling,"[2]; 1,4-dioxane",remained semi-crystalline
same,XRPD after thermal cycling,"[2]; solvents other than 1,4-dioxane",returned to Pattern 1
same,XRPD after 2-week slurry,"[2]; 93% Ethanol:7% Water, 48% Methanol:52% Water, 2-Propanol, 2-Methyl THF",returned to Pattern 1
same,XRPD after 2-week slurry,[2]; THF and THP,additional peaks with Pattern 1 at 8.1° 2θ (Pattern 1+)
same,XRPD after fast evaporation at 50° C.,[2]; DMF,pattern 1 with significant preferred orientation
same,XRPD after anti-solvent addition + fast cool,"[2]; MEK as anti-solvent in 1,4-dioxane, freezer 72 hrs",consistent with Pattern 1
same,XRPD after fast evaporation at 50° C.,"[2]; THP, THF, 2-methyl THF and 1,1,1.3.3.3-Hexafluoro-2-Propanol",returned to Pattern 1
same,XRPD after anti-solvent addition,"[2]; acetone as anti-solvent, 1,1,1.3.3.3-Hexafluoro-2-Propanol",returned to Pattern 1 with additional peaks
same,XRPD after solvent drop grinding,[2]; all 16 solvent systems,returned to pattern 1
same,XRPD after bead milling,[2]; bead milling,less crystalline material
same,XRPD after fast cooling,"[2]; crash cooling of 1,3-dioxolane saturate, freezer 72 hrs",preferred orientation of Pattern 1
same,"XRPD of solids, solvent solubility assessment",[2]; evaporation of clear solution of THF and THP,"showed preferred orientation, but later returned to Pattern 1 post grinding"
same,XRPD (Grind),"[2]; N,N′-Dimethylacetamide",Pattern 1
same,XRPD (Grind),"[2]; N,N′-Dimethylformamide",Pattern 1
same,XRPD after anti-solvent addition at 50° C.,[2]; water addition to all the 16 saturates,returned to Pattern 1
same,XRPD after anti-solvent addition,"[2]; water, room temperature, except 2-Methyl THF, 2-Propanol, 48% Methanol:52% Water, 93% Ethanol:7% Water, Benzyl Alcohol (clear solutions)",returned to Pattern 1
COc1cccc(-c2cc(F)c(Nc3ncccc3C(=O)O)c(F)c2)c1 [1412NC0160A-02],Particle Size D10,[1],0.90 μm
same,Particle Size D50,[1],3.46 μm
same,Particle Size D90,[1],45.05 μm
same,Particle Size MV,[1],13.27 μm
COc1cccc(-c2cc(F)c(Nc3ncccc3C(=O)O)c(F)c2)c1 [1412NC0160A-01],Particle Size D10,[1],32.34 μm
same,Particle Size D50,[1],160.95 μm
same,Particle Size D90,[1],238.22 μm
same,Particle Size MV,[1],151.47 μm
